Reference: patent US11439707B2, “Hypocrellin derivative substituted both in a peri-position and in 2-position by amino, preparation method, and application thereof” (priority 2017, dated 2022)

Legend:
[1] = absorption spectrum (maximum absorption wavelength, molar extinction coefficient); format: physicochemical
[2] = singlet oxygen efficiency test, reference rose bengal; format: physicochemical

| SMILES | maximum absorption wavelength [1] | molar extinction coefficient [1] | singlet oxygen yield [2] |
| --- | --- | --- | --- |
| COCCOCCOCCOCCOCCOCCOCCOCCOCCOCCOCCOCCOCCOCCOCCOCCOC(=O)C1CCC(CNc2c3c4c5c(c(OC)c(=O)c6c(NCC7CCC(C(=O)OCCOCCOCCOCCOCCOCCOCCOCCOCCOCCOCCOCCOCCOCCOCCOCCOC)CC7)cc(OC)c(c7c(OC)cc(O)c(c2=O)c74)c65)CC(C)=C3)CC1 (stereo not drawn) [HC-13d-PEG16] | 625 nm | 31,500 M^−1cm^−1 | 30% |
| CCNc1c2c3c4c(c(OC)c(=O)c5c(O)cc(OC)c(c6c(OC)cc(NC7CCCC7)c(c1=O)c63)c54)C(C(C)=O)C(C)=C2 (stereo not drawn) [HB-44c] | 624 nm | 21,000 M^−1cm^−1 | 20% |
| COc1c2c3c4c(c(NCCOCCO)c(=O)c5c(O)cc(OC)c(c6c(OC)cc(NCCOCCO)c(c1=O)c63)c54)C=C(C)C2C(C)=O (stereo not drawn) [HB-1d] | 622 nm | 30,000 M^−1cm^−1 | 35% |
| COCCOCCOCCOCCOCCOCCOCCOCCOCCOCCOCCOCCOCCC(=O)OCCOCCNc1c2c3c4c(c(OC)c(=O)c5c(O)cc(OC)c(c6c(OC)cc(NCCOCCOC(=O)CCOCCOCCOCCOCCOCCOCCOCCOCCOCCOCCOCCOCCOC)c(c1=O)c63)c54)CC(C)=C2 [HC-1c-PEG12] | 626 nm | 32,500 M^−1cm^−1 | 35% |
| COc1c2c3c4c(c(NCCNCCOCCO)c(=O)c5c(O)c(Br)c(OC)c(c6c(OC)cc(NCCNCCOCCO)c(c1=O)c63)c54)C=C(C)C2C(C)=O (stereo not drawn) [HB-5d-Br-PEG1] | 624 nm | 29,500 M^−1cm^−1 | 32% |
| COCCOC(=O)C1CCCCC1Nc1c(NC2CCCCC2C(=O)OCCOC)c2c(=O)cc(OC)c3c4c(OC)cc(=O)c5c(O)c(OC)c6c(c(c1C=C(C)C6C(C)=O)c23)c54 (stereo not drawn) [HB-16a-PEG1] | 624 nm | 30,500 M^−1cm^−1 | 32% |
| COCCOCCC(=O)OCCOCCNc1c(NCCOCCOC(=O)CCOCCOC)c2c(=O)cc(OC)c3c4c(OC)cc(=O)c5c(O)c(OC)c6c(c(c1C=C(C)C6)c23)c54 [HC-1a-PEG1] | 622 nm | 30,500 M^−1cm^−1 | 32% |
| CCNc1c(NC2CCCC2)c2c(=O)c(SCCO)c(OC)c3c4c(OC)cc(=O)c5c(O)c(OC)c6c(c(c1C=C(C)C6C(C)=O)c23)c54 (stereo not drawn) [HB-S-44a] | 628 nm | 21,500 M^−1cm^−1 | 20% |
| COCCOCCC(=O)OCCOCCNc1c(NCCCC(=O)O)c2c(=O)cc(OC)c3c4c(OC)cc(=O)c5c(O)c(OC)c6c(c(c1C=C(C)C6C(C)=O)c23)c54 (stereo not drawn) [HB-48a-PEG1] | 628 nm | 31,500 M^−1cm^−1 | 32% |
| COCCOCCC(=O)OC1CCC(Nc2c(NC3CCC(OC(=O)CCOCCOC)CC3)c3c(=O)cc(OC)c4c5c(OC)cc(=O)c6c(O)c(OC)c7c(c(c2C=C(C)C7C(C)=O)c34)c65)CC1 (stereo not drawn) [HB-17a-PEG1] | 622 nm | 30,500 M^−1cm^−1 | 30% |
| COc1c2c3c4c(c(NCC5CCC(C(=O)NCCCCS(=O)(=O)O)CC5)c(=O)c5c(O)cc(OC)c(c6c(OC)cc(NCC7CCC(C(=O)NCCCCS(=O)(=O)O)CC7)c(c1=O)c63)c54)C=C(C)C2 (stereo not drawn) [HC-13d-C4-SO3H] | 624 nm | 31,000 M^−1cm^−1 | 30% |
| COc1c2c3c4c(c(NCCNCCOCCOCCOCCOCCO)c(=O)c5c(NCCNCCOCCOCCOCCOCCO)c(Br)c(OC)c(c6c(OC)cc(O)c(c1=O)c63)c54)C=C(C)C2C(C)=O (stereo not drawn) [HB-5c-Br-PEG4] | 630 nm | 31,500 M^−1cm^−1 | 36% |
| COCCOCCC(=O)OCC1(Nc2c(NC3(COC(=O)CCOCCOC)CC3)c3c(=O)cc(OC)c4c5c(OC)cc(=O)c6c(O)c(OC)c7c(c(c2C=C(C)C7C(C)=O)c34)c65)CC1 (stereo not drawn) [HB-35a-PEG1] | 624 nm | 31,500 M^−1cm^−1 | 34% |
| CCCCCCNc1c(NCCCCCC)c2c(=O)cc(OC)c3c4c(OC)cc(=O)c5c(O)c(OC)c6c(c(c1C=C(C)C6)c23)c54 [HC-34a] | 625 nm | 31,500 M^−1cm^−1 | 30% |
| COc1c2c3c4c(c(NC5CCCC(C(=O)O)C5)c(=O)c5c(O)cc(OC)c(c6c(OC)cc(NC7CCCC(C(=O)O)C7)c(c1=O)c63)c54)C=C(C)C2C(C)=O (stereo not drawn) [HB-15d] | 623 nm | 27,000 M^−1cm^−1 | 24% |
| COc1c(O)c2c(=O)cc(OC)c3c4c(OC)cc(=O)c5c(NC(C(=O)O)C(C)C)c(NC(C(=O)O)C(C)C)c6c(c(c1C(C(C)=O)C(C)=C6)c23)c54 (stereo not drawn) [HB-22a] | 621 nm | 21,000 M^−1cm^−1 | 18% |
| COc1c(NCC2CCC(C(=O)NCCCC[P+](c3ccccc3)(c3ccccc3)c3ccccc3)CC2)c2c(=O)cc(OC)c3c4c(OC)cc(=O)c5c(O)c(NCC6CCC(C(=O)NCCCC[P+](c7ccccc7)(c7ccccc7)c7ccccc7)CC6)c6c(c(c1CC(C)=C6)c23)c54 (stereo not drawn) [HC-13b-NH—C4-PPh3+] | 626 nm | 30,500 M^−1cm^−1 | 34% |

| SMILES | maximum absorption wavelength [1] | molar extinction coefficient [1] | singlet oxygen yield [2] |
| --- | --- | --- | --- |
| COCCOCCOCCOCCOCCOCCOC(=O)CCCCCNc1c2c3c4c(c(OC)c(=O)c5c(O)cc(OC)c(c6c(OC)cc(NCCCCCC(=O)OCCOCCOCCOCCOCCOCCOC)c(c1=O)c63)c54)CC(C)=C2 [HC-9c-PEG6] | 628 nm | 33,000 M^−1cm^−1 | 36% |
| COc1c2c3c4c(c(NCCO)c(=O)c5c(NCCO)cc(OC)c(c6c(OC)cc(O)c(c1=O)c63)c54)C=C(C)C2C(C)=O (stereo not drawn) [HB-2c] | 628 nm | 31,000 M^−1cm^−1 | 30% |
| CCCCCCNc1c2c3c4c(c(OC)c(=O)c5c(O)cc(OC)c(c6c(OC)cc(NCCCCCC)c(c1=O)c63)c54)CC(C)=C2 [HC-34c] | 624 nm | 32,500 M^−1cm^−1 | 38% |
| COCCOCCOCCOCCOCCOCCOCCC(=O)OC1CCC(Nc2c(O)c3c(=O)cc(OC)c4c5c(OC)cc(=O)c6c(NC7CCC(OC(=O)CCOCCOCCOCCOCCOCCOCCOC)C7)c(OC)c7c(c(c2C=C(C)C7C(C)=O)c34)c65)C1 (stereo not drawn) [HB-20b-PEG6] | 624 nm | 31,000 M^−1cm^−1 | 28% |
| COc1c(O)c2c(=O)cc(OC)c3c4c(OC)cc(=O)c5c(NC(CC(=O)O)C(=O)O)c(NC(CC(=O)O)C(=O)O)c6c(c(c1C(C(C)=O)C(C)=C6)c23)c54 (stereo not drawn) [HB-27a] | 621 nm | 20,500 M^−1cm^−1 | 18% |
| COC(=O)C(CO)Nc1c2c3c4c(c(OC)c(=O)c5c(O)cc(OC)c(c6c(OC)cc(NC(CO)C(=O)OC)c(c1=O)c63)c54)C(C(C)=O)C(C)=C2 (stereo not drawn) [HB-24c] | 622 nm | 21,500 M^−1cm^−1 | 22% |
| COc1c2c3c4c(c(NC5CCC(C(=O)O)CC5)c(=O)c5c(O)cc(OC)c(c6c(OC)cc(NC7CCC(C(=O)O)CC7)c(c1=O)c63)c54)C=C(C)C2C(C)=O (stereo not drawn) [HB-14d] | 623 nm | 27,000 M^−1cm^−1 | 24% |
| COc1c(O)c2c(=O)cc(OC)c3c4c(OC)cc(=O)c5c(NCCC(=O)NCCN6CCOCC6)c(NCCC(=O)NCCN6CCOCC6)c6c(c(c1C(C(C)=O)C(C)=C6)c23)c54 (stereo not drawn) [HB-42a] | 620 nm | 32,500 M^−1cm^−1 | 33% |
| COc1c2c3c4c(c(NCC[N+]56CC[N+](C)(CC5)CC6)c(=O)c5c(O)cc(OC)c(c6c(OC)cc(NCC[N+]78CC[N+](C)(CC7)CC8)c(c1=O)c63)c54)C=C(C)C2C(C)=O (stereo not drawn) [HB-41d] | 625 nm | 30,500 M^−1cm^−1 | 28% |
| COc1c2c3c4c(c(NC(CC(N)=O)C(=O)O)c(=O)c5c(O)cc(OC)c(c6c(OC)cc(NC(CC(N)=O)C(=O)O)c(c1=O)c63)c54)C=C(C)C2C(C)=O (stereo not drawn) [HB-26d] | 622 nm | 20,500 M^−1cm^−1 | 16% |
| COc1c2c3c4c(c(NCCCCCC(=O)O)c(=O)c5c(O)cc(OC)c(c6c(OC)cc(NCCCCCC(=O)O)c(c1=O)c63)c54)C=C(C)C2 [HC-9d] | 624 nm | 25,000 M^−1cm^−1 | 26% |
| CCNNc1c(O)c2c(=O)cc(OC)c3c4c(OC)cc(=O)c5c(NNCC)c(OC)c6c(c(c1C=C(C)C6C(C)=O)c23)c54 (stereo not drawn) [HB-36b] | 622 nm | 31,500 M^−1cm^−1 | 30% |
| COc1c(NCC2CCC(C(=O)NCCCCS(=O)(=O)O)CC2)c2c(=O)cc(OC)c3c4c(OC)cc(=O)c5c(O)c(NCC6CCC(C(=O)NCCCCS(=O)(=O)O)CC6)c6c(c(c1CC(C)=C6)c23)c54 (stereo not drawn) [HC-13b-C4-SO3H] | 622 nm | 30,000 M^−1cm^−1 | 32% |
| COc1c2c3c4c(c(NCC(=O)O)c(=O)c5c(NCC(=O)O)cc(OC)c(c6c(OC)cc(O)c(c1=O)c63)c54)C=C(C)C2C(C)=O (stereo not drawn) [HB-7c] | 618 nm | 27,500 M^−1cm^−1 | 27% |
| COCCOCCOCCOCCOCCOCCOCCOCCOCCOCCOCCOCCOC(=O)CCCNc1c2c3c4c(c(OC)c(=O)c5c(O)cc(OC)c(c6c(OC)cc(NCCCC(=O)OCCOCCOCCOCCOCCOCCOCCOCCOCCOCCOCCOCCOC)c(c1=O)c63)c54)C(C(C)=O)C(C)=C2 (stereo not drawn) [HB-8c-PEG12] | 628 nm | 33,000 M^−1cm^−1 | 36% |
| COc1c2c3c4c(c(NCCO)c(=O)c5c(O)cc(OC)c(c6c(OC)cc(NCCO)c(c1=O)c63)c54)C=C(C)C2 [HC-2d] | 625 nm | 28,500 M^−1cm^−1 | 34% |
